Measured values published in ChEMBL document CHEMBL5108078, “Design and Synthesis of Phenyl Sulfide-Based Cationic Amphiphiles as Membrane-Targeting Antimicrobial Agents against Gram-Positive Pathogens” (J Med Chem, 2022).
Values after ≈ are worked out from the molar mass of the structure shown.

Key:
Staphylococcus aureus [1] = assay: Antibacterial activity against methicillin resistant Staphylococcus aureus NCTC10442 assessed as inhibition of bacterial growth incubated for 24 hrs by microbroth dilution method; format: functional
[2] = Hemolytic activity in rabbit RBC incubated for 1 hr by microplate reader analysis; format: toxicity, cell-based, Oryctolagus cuniculus, Erythrocyte; conditions: rabbit red blood cells (erythrocytes)
Staphylococcus aureus [3] = assay: Antibacterial activity against Staphylococcus aureus ATCC 29213 assessed as inhibition of bacterial growth incubated for 24 hrs by microbroth dilution method; format: functional
Staphylococcus aureus [4] = assay: Antibacterial activity against methicillin resistant Staphylococcus aureus N315 assessed as inhibition of bacterial growth incubated for 24 hrs by microbroth dilution method; format: functional
Enterococcus faecalis = assay: Antibacterial activity against Enterococcus faecalis ATCC 29212 assessed as inhibition of bacterial growth incubated for 24 hrs by microbroth dilution method; format: functional
Staphylococcus aureus [5] = assay: Antibacterial activity against Staphylococcus aureus ATCC 15981 assessed as inhibition of bacterial growth incubated for 24 hrs by microbroth dilution method; format: functional
[6] = test system: Staphylococcus epidermidis; assay: Antibacterial activity against Staphylococcus epidermidis CMCC26069 assessed as inhibition of bacterial growth incubated for 24 hrs by microbroth dilution method; format: functional
Bacillus subtilis = assay: Antibacterial activity against Bacillus subtilis CMCC63501 assessed as inhibition of bacterial growth incubated for 24 hrs by microbroth dilution method; format: functional
[7] = test system: Staphylococcus epidermidis; assay: Antibacterial activity against Staphylococcus epidermidis ATCC 12228 assessed as inhibition of bacterial growth incubated for 24 hrs by microbroth dilution method; format: functional
Staphylococcus aureus [8] = assay: Induction of resistant development in Staphylococcus aureus ATCC 29213 assessed as fold increase in MIC at 0.5 MIC after 12 passages by resistant development assay; format: functional

SMILES	MIC (Staphylococcus aureus [1]) [µg/mL]	HC50 at 1 h [2] [µg/mL]	MIC (Staphylococcus aureus [3]) [µg/mL]	MIC (Staphylococcus aureus [4]) [µg/mL]	MIC (Enterococcus faecalis) [µg/mL]	MIC (Staphylococcus aureus [5]) [µg/mL]	MIC [6] [µg/mL]	MIC (Bacillus subtilis) [µg/mL]	MIC [7] [µg/mL]	fold change (FC) (Staphylococcus aureus [8])
CCN(CC)CCCCOc1ccc(C(C)(C)CC(C)(C)C)cc1Sc1cc(C(C)(C)CC(C)(C)C)ccc1OCCCCN(CC)CC	3.12 (≈ 4.48 µM)	67.9	3.12 (≈ 4.48 µM)	1.56 (≈ 2.24 µM)	–	–	–	–	–	–
COC(=O)[C@H](CCCNC(=N)N)NC(=O)COc1c(Sc2cc(C)cc(C(C)(C)C)c2OCC(=O)N[C@@H](CCCNC(=N)N)C(=O)OC)cc(C)cc1C(C)(C)C	3.12 (≈ 3.83 µM)	> 200	3.12 (≈ 3.83 µM)	1.56 (≈ 1.91 µM)	12.5 (≈ 15.3 µM)	1.56 (≈ 1.91 µM)	0.78 (≈ 0.957 µM)	1.56 (≈ 1.91 µM)	0.78 (≈ 0.957 µM)	–
CC(C)(C)CC(C)(C)c1ccc(O)c(Sc2cc(C(C)(C)CC(C)(C)C)ccc2O)c1	> 50	> 200	> 50	> 50	–	–	–	–	–	–
COC(=O)[C@H](CCCNC(=N)N)NC(=O)[C@H](CCCNC(=N)N)NC(=O)[C@H](CCCNC(=N)N)NC(=O)COc1ccc(C(C)(C)CC(C)(C)C)cc1Sc1cc(C(C)(C)CC(C)(C)C)ccc1OCC(=O)N[C@@H](CCCNC(=N)N)C(=O)N[C@@H](CCCNC(=N)N)C(=O)N[C@@H](CCCNC(=N)N)C(=O)OC	3.12 (≈ 2.05 µM)	> 200	6.25 (≈ 4.1 µM)	6.25 (≈ 4.1 µM)	–	–	–	–	–	–
CC(C)(C)CC(C)(C)c1ccc(OCCCCN2CCCCC2)c(Sc2cc(C(C)(C)CC(C)(C)C)ccc2OCCCCN2CCCCC2)c1	25 (≈ 34.7 µM)	> 200	12.5 (≈ 17.3 µM)	12.5 (≈ 17.3 µM)	–	–	–	–	–	–
COC(=O)[C@H](CCCNC(=N)N)NC(=O)[C@H](CCCNC(=N)N)NC(=O)COc1ccc(C(C)(C)CC(C)(C)C)cc1Sc1cc(C(C)(C)CC(C)(C)C)ccc1OCC(=O)N[C@@H](CCCNC(=N)N)C(=O)N[C@@H](CCCNC(=N)N)C(=O)OC	3.12 (≈ 2.58 µM)	> 200	1.56 (≈ 1.29 µM)	1.56 (≈ 1.29 µM)	3.12 (≈ 2.58 µM)	3.12 (≈ 2.58 µM)	1.56 (≈ 1.29 µM)	1.56 (≈ 1.29 µM)	1.56 (≈ 1.29 µM)	–
CCCN(CCC)CCCCOc1ccc(C(C)(C)CC(C)(C)C)cc1Sc1cc(C(C)(C)CC(C)(C)C)ccc1OCCCCN(CCC)CCC	> 50	> 200	> 50	> 50	–	–	–	–	–	–
CCOC(=O)COc1ccc(C(C)(C)CC(C)(C)C)cc1Sc1cc(C(C)(C)CC(C)(C)C)ccc1OCC(=O)OCC	> 50	> 200	> 50	> 50	–	–	–	–	–	–
CCNCCCCOc1ccc(C(C)(C)CC(C)(C)C)cc1Sc1cc(C(C)(C)CC(C)(C)C)ccc1OCCCCNCC	1.56 (≈ 2.43 µM)	30.8	1.56 (≈ 2.43 µM)	1.56 (≈ 2.43 µM)	–	–	–	–	–	–
CCCCCCNCCCCOc1ccc(C(C)(C)CC(C)(C)C)cc1Sc1cc(C(C)(C)CC(C)(C)C)ccc1OCCCCNCCCCCC	> 50	> 200	> 50	> 50	–	–	–	–	–	–
COC(=O)[C@H](CCCNC(=N)N)NC(=O)COc1ccc(C(C)(C)CC(C)(C)C)cc1Sc1cc(C(C)(C)CC(C)(C)C)ccc1O	1.56 (≈ 2.33 µM)	130	12.5 (≈ 18.6 µM)	3.12 (≈ 4.66 µM)	–	–	–	–	–	–
CCCCNCCCCOc1ccc(C(C)(C)CC(C)(C)C)cc1Sc1cc(C(C)(C)CC(C)(C)C)ccc1OCCCCNCCCC	6.25 (≈ 8.96 µM)	41.5	6.25 (≈ 8.96 µM)	6.25 (≈ 8.96 µM)	–	–	–	–	–	–
COC(=O)[C@H](CCCNC(=N)N)NC(=O)COc1ccc(Cl)cc1Sc1cc(Cl)ccc1OCC(=O)N[C@@H](CCCNC(=N)N)C(=O)OC	12.5 (≈ 16.8 µM)	> 200	25 (≈ 33.6 µM)	12.5 (≈ 16.8 µM)	–	–	–	–	–	–
CC(C)(C)CC(C)(C)c1ccc(OCCCCNC(=N)N)c(Sc2cc(C(C)(C)CC(C)(C)C)ccc2OCCCCNC(=N)N)c1	3.12 (≈ 4.67 µM)	> 200	3.12 (≈ 4.67 µM)	3.12 (≈ 4.67 µM)	–	–	–	–	–	–
CC(C)(C)CC(C)(C)c1ccc(OCC(=O)N[C@@H](CCCNC(=N)N)C(=O)N[C@@H](CCCNC(=N)N)C(N)=O)c(Sc2cc(C(C)(C)CC(C)(C)C)ccc2OCC(=O)N[C@@H](CCCNC(=N)N)C(=O)N[C@@H](CCCNC(=N)N)C(N)=O)c1	6.25 (≈ 5.29 µM)	> 200	6.25 (≈ 5.29 µM)	6.25 (≈ 5.29 µM)	–	–	–	–	–	–
COC(=O)[C@H](CCCCN)NC(=O)COc1ccc(C(C)(C)CC(C)(C)C)cc1Sc1cc(C(C)(C)CC(C)(C)C)ccc1OCC(=O)N[C@@H](CCCCN)C(=O)OC	3.12 (≈ 3.71 µM)	162	3.12 (≈ 3.71 µM)	1.56 (≈ 1.85 µM)	–	–	–	–	–	–
Cc1cc(Sc2cc(C)cc(C(C)(C)C)c2OCC(=O)N[C@@H](CCCNC(=N)N)C(N)=O)c(OCC(=O)N[C@@H](CCCNC(=N)N)C(N)=O)c(C(C)(C)C)c1	12.5 (≈ 15.9 µM)	> 200	25 (≈ 31.8 µM)	12.5 (≈ 15.9 µM)	–	–	–	–	–	–
CN(C)CCCCOc1ccc(C(C)(C)CC(C)(C)C)cc1Sc1cc(C(C)(C)CC(C)(C)C)ccc1OCCCCN(C)C	1.56 (≈ 2.43 µM)	23.2	1.56 (≈ 2.43 µM)	1.56 (≈ 2.43 µM)	–	–	–	–	–	–
Oc1ccc(Cl)cc1Sc1cc(Cl)ccc1O [FENTICLOR]	> 50	> 200	> 50	> 50	–	–	–	–	–	–
CC(C)(C)CC(C)(C)c1ccc(O)c(Sc2cc(C(C)(C)CC(C)(C)C)ccc2OCC(=O)N[C@@H](CCCNC(=N)N)C(N)=O)c1	12.5 (≈ 19.1 µM)	> 200	12.5 (≈ 19.1 µM)	12.5 (≈ 19.1 µM)	–	–	–	–	–	–
CC(C)(C)CC(C)(C)c1ccc(OCC(=O)N[C@@H](CCCNC(=N)N)C(N)=O)c(Sc2cc(C(C)(C)CC(C)(C)C)ccc2OCC(=O)N[C@@H](CCCNC(=N)N)C(N)=O)c1	3.12 (≈ 3.6 µM)	183	3.12 (≈ 3.6 µM)	1.56 (≈ 1.79 µM)	–	–	–	–	–	–
CCn1cc(C(=O)O)c(=O)c2cc(F)c(N3CCNCC3)cc21	–	–	–	–	–	–	–	–	–	32
CN1CCN(CCCCOc2ccc(C(C)(C)CC(C)(C)C)cc2Sc2cc(C(C)(C)CC(C)(C)C)ccc2OCCCCN2CCN(C)CC2)CC1	12.5 (≈ 16.6 µM)	> 200	12.5 (≈ 16.6 µM)	12.5 (≈ 16.6 µM)	–	–	–	–	–	–
COC(=O)[C@H](CCCNC(=N)N)NC(=O)[C@H](CCCNC(=N)N)NC(=O)COc1c(Sc2cc(C)cc(C(C)(C)C)c2OCC(=O)N[C@@H](CCCNC(=N)N)C(=O)N[C@@H](CCCNC(=N)N)C(=O)OC)cc(C)cc1C(C)(C)C	1.56 (≈ 1.38 µM)	> 200	1.56 (≈ 1.38 µM)	1.56 (≈ 1.38 µM)	25 (≈ 22.2 µM)	1.56 (≈ 1.38 µM)	0.78 (≈ 0.692 µM)	0.78 (≈ 0.692 µM)	0.78 (≈ 0.692 µM)	–
CC(C)(C)CC(C)(C)c1ccc(OCCCCBr)c(Sc2cc(C(C)(C)CC(C)(C)C)ccc2OCCCCBr)c1	> 50	> 200	> 50	> 50	–	–	–	–	–	–
CCOC(=O)COc1ccc(C(C)(C)CC(C)(C)C)cc1Sc1cc(C(C)(C)CC(C)(C)C)ccc1O	> 50	> 200	> 50	> 50	–	–	–	–	–	–
CC(C)(C)CC(C)(C)c1ccc(OCCCCN2CCSCC2)c(Sc2cc(C(C)(C)CC(C)(C)C)ccc2OCCCCN2CCSCC2)c1	> 50	> 200	> 50	> 50	–	–	–	–	–	–
Cc1cc(Sc2cc(C)cc(C(C)(C)C)c2O)c(O)c(C(C)(C)C)c1	> 50	> 200	> 50	> 50	–	–	–	–	–	–
CCCCN(CCCC)CCCCOc1ccc(C(C)(C)CC(C)(C)C)cc1Sc1cc(C(C)(C)CC(C)(C)C)ccc1OCCCCN(CCCC)CCCC	> 50	> 200	> 50	> 50	–	–	–	–	–	–
